# Biological target: T1, Plk1 (Homo sapiens, UniProt P53350)
# T1 construct: in the presence of 15 nM Plk1 (A20-K338)
# Test: Plk1 inhibition assay (radioactive-phosphate incorporation)
# Format: biochemical
# Conditions: Ki(app) from initial rate data
# Description: The compounds of the present invention are evaluated as inhibitors of human PLK kinase using the following assays.
# (§1) Compounds were screened for their ability to inhibit Plk1 using a radioactive-phosphate incorporation assay. Assays were carried out in a mixture of 25 mM HEPES (pH 7.5), 10 mM MgCl2, and 1 mM DTT. […] An assay stock buffer solution was prepared containing all of the reagents listed above, with the exception of ATP and the test compound of interest. […] The plate was pre-incubated for 10 minutes at 25° C. and the reaction initiated by addition of 8 μL [γ-33 P]ATP (final concentration 50 μM).
# (§2) The reaction was stopped after 60 minutes by the addition of 100 μL 0.14M phosphoric acid. A multiscreen phosphocellulose filter 96-well plate (Millipore, Cat no. MAPHN0B50) was pretreated with 100 μL 0.2M phosphoric acid prior to the addition of 125 μL of the stopped assay mixture. The plate was washed with 4×200 μL 0.2M phosphoric acid.
# After removing mean background values for all of the data points, Ki(app) data were calculated from non-linear regression analysis of the initial rate data using the Prism software package (GraphPad Prism version 3.0cx for Macintosh, GraphPad Software, San Diego, Calif., USA).
# as §1, with “MgCl2, […],” for “MgCl2,”, “and 2” for “and 1”, “μL [γ-33P]ATP” for “μL [γ-33 P]ATP”, “concentration 100” for “concentration 50”
# as §2, with “90” for “60”
# T1 sequence (P53350 20-338): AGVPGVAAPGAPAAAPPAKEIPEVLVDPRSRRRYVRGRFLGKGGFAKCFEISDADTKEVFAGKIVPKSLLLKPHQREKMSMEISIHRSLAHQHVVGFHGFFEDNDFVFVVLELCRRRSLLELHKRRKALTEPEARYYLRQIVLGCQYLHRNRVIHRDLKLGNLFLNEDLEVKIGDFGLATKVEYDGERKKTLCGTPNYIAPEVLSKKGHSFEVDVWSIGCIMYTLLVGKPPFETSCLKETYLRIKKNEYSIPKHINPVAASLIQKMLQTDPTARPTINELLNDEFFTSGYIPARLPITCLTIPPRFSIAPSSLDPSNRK
row,Structure (SMILES),Ki
1,"CC(Oc1cc(-c2cnn3ccccc23)sc1C(N)=O)c1ccccc1Cl (stereo not shown) [Compound I-2, 3-[1-(2-Chloro-phenyl)-ethoxy]-5-pyrazolo[1,5-a]pyridin-3-yl-thiophene-2-carboxamide]",< 100 nM
2,"COc1cnc2[nH]cc(-c3cc(OC(C)c4ccccc4Cl)c(C(N)=O)s3)c2c1 (stereo not shown) [Compound I-3, 3-[1-(2-Chloro-phenyl)-ethoxy]-5-(5-methoxy-1H-pyrrolo[2,3-b]pyridin-3-yl)-thiophene-2-carboxyamide]",< 100 nM
3,CC(Oc1cc(-c2nnc3ccc(N)nn23)sc1C(N)=O)c1ccccc1Cl (stereo not shown) [Compound I-4],> 1000 nM
4,"CC(Oc1cc(-c2cnc3[nH]ccc3c2)sc1C(N)=O)c1ccccc1Cl (stereo not shown) [Compound I-5, 3-[1-(2-Chloro-phenyl)-ethoxy]-5-(1H-pyrrolo[2,3-b]pyridin-5-yl)-thiophene-2-carboxamide]",100 to 1000 nM
5,"C=Cc1cnc2[nH]cc(-c3cc(OC(C)c4ccccc4Cl)c(C(N)=O)s3)c2c1 (stereo not shown) [Compound I-6, 3-(1-(2-chlorophenyl)ethoxy)-5-(5-vinyl-1H-pyrrolo[2,3-b]pyridin-3-yl)thiophene-2-carboxamide]",< 100 nM
6,"CNC(=O)c1ccc2ncc(-c3cc(OC(C)c4ccccc4Cl)c(C(N)=O)s3)n2c1 (stereo not shown) [Compound I-7, 3-(5-carbamoyl-4-(1-(2-chlorophenyl)ethoxy)thiophen-2-yl)-N-methylimidazo[1,2-a]pyridine-6-carboxamide]",< 100 nM
7,"CC(Oc1cc(-c2cnc3ccc(F)cn23)sc1C(N)=O)c1ccccc1Cl (stereo not shown) [Compound I-8, 3-(1-(2-chlorophenyl)ethoxy)-5-(6-fluoroimidazo[1,2-a]pyridin-3-yl)thiophene-2-carboxamide]",< 100 nM
8,CC(Oc1cc(-c2cnc3cnccn23)sc1C(N)=O)c1ccccc1Cl (stereo not shown) [Compound I-9],< 100 nM
9,"CC(Oc1cc(-c2cnc3ccc(C(F)(F)F)cn23)sc1C(N)=O)c1ccccc1Cl (stereo not shown) [Compound I-10, 3-(1-(2-chlorophenyl)ethoxy)-5-(6-(trifluoromethyl)imidazo[1,2-a]pyridin-3-yl)thiophene-2-carboxamide]",< 100 nM
10,"CNC(=O)c1ccn2c(-c3cc(OC(C)c4ccccc4Cl)c(C(N)=O)s3)cnc2c1 (stereo not shown) [Compound I-11, 3-(5-carbamoyl-4-(1-(2-chlorophenyl)ethoxy)thiophen-2-yl)-N-methylimidazo[1,2-a]pyridine-7-carboxamide]",< 100 nM
11,"CC(Oc1cc(-c2cnc3cccnn23)sc1C(N)=O)c1ccccc1Cl (stereo not shown) [Compound I-12, 3-(1-(2-chlorophenyl)ethoxy)-5-(imidazo[1,2-b]pyridazin-3-yl)thiophene-2-carboxamide]",< 100 nM
12,"CC(Oc1cc(-c2cnc3cc(C(F)(F)F)ccn23)sc1C(N)=O)c1ccccc1Cl (stereo not shown) [Compound I-13, 3-(1-(2-chlorophenyl)ethoxy)-5-(7-(trifluoromethyl)imidazo[1,2-a]pyridin-3-yl)thiophene-2-carboxamide]",< 100 nM
13,"CCOC(=O)Nc1ccn2c(-c3cc(OC(C)c4ccccc4Cl)c(C(N)=O)s3)cnc2c1 (stereo not shown) [Compound I-14, Ethyl 3-(5-carbamoyl-4-(1-(2-chlorophenyl)ethoxy)thiophen-2-yl)imidazo[1,2-a]pyridin-7-ylcarbamate]",< 100 nM
14,"CC(Oc1cc(-c2cnc3cc(N)ccn23)sc1C(N)=O)c1ccccc1Cl (stereo not shown) [Compound I-15, 5-(7-aminoimidazo[1,2-a]pyridin-3-yl)-3-(1-(2-chlorophenyl)ethoxy)thiophene-2-carboxamide]",< 100 nM
15,"CNC(=O)c1sc(-c2cnc3ccccn23)cc1OC(C)c1ccccc1Cl (stereo not shown) [Compound I-16, 3-(1-(2-chlorophenyl)ethoxy)-5-(imidazo[1,2-a]pyridin-3-yl)-N-methylthiophene-2-carboxamide]",> 1000 nM
16,"CCOC(=O)N(C)c1ccn2c(-c3cc(OC(C)c4ccccc4Cl)c(C(N)=O)s3)cnc2c1 (stereo not shown) [Compound I-17, Ethyl 3-(5-carbamoyl-4-(1-(2-chlorophenyl)ethoxy)thiophen-2-yl)imidazo[1,2-a]pyridin-7-yl(methyl)carbamate]",< 100 nM
17,"COC(=O)N(C)c1ccn2c(-c3cc(OC(C)c4ccccc4Cl)c(C(N)=O)s3)cnc2c1 (stereo not shown) [Compound I-18, Methyl 3-(5-carbamoyl-4-(1-(2-chlorophenyl)ethoxy)thiophen-2-yl)imidazo[1,2-a]pyridin-7-yl(methyl)carbamate]",< 100 nM
18,"COC(=O)Nc1ccn2c(-c3cc(O[C@@H](C)c4ccccc4Cl)c(C(N)=O)s3)cnc2c1 [Compound I-19, (S)-methyl 3-(5-carbamoyl-4-(1-(2-chlorophenyl)ethoxy)thiophen-2-yl)imidazo[1,2-a]pyridin-7-ylcarbamate]",< 100 nM
19,"CCOC(=O)Nc1ccn2c(-c3cc(O[C@@H](C)c4ccccc4Cl)c(C(N)=O)s3)cnc2c1 [Compound I-20, (S)-ethyl 3-(5-carbamoyl-4-(1-(2-chlorophenyl)ethoxy)thiophen-2-yl)imidazo[1,2-a]pyridin-7-ylcarbamate]",< 100 nM
20,"CC[C@H](Oc1cc(-c2cnc3cc(NC(=O)OC)ccn23)sc1C(N)=O)c1ccccc1Cl [Compound I-21, (S)-methyl 3-(5-carbamoyl-4-(1-(2-chlorophenyl)propoxy)thiophen-2-yl)imidazo[1,2-a]pyridin-7-ylcarbamate]",< 100 nM
21,"CCOC(=O)Nc1ccn2c(-c3cc(O[C@@H](CC)c4ccccc4Cl)c(C(N)=O)s3)cnc2c1 [Compound I-22, (S)-ethyl 3-(5-carbamoyl-4-(1-(2-chlorophenyl)propoxy)thiophen-2-yl)imidazo[1,2-a]pyridin-7-ylcarbamate]",< 100 nM
22,"CCOC(=O)Nc1ccn2c(-c3cc(OC(C)(C)c4ccccc4Cl)c(C(N)=O)s3)cnc2c1 [Compound I-25, Ethyl 3-(5-carbamoyl-4-(2-(2-chlorophenyl)propan-2-yloxy)thiophen-2-yl)imidazo[1,2-a]pyridin-7-ylcarbamate]",< 100 nM
